# Test results reported in ChEMBL document CHEMBL5726706, “C-linked heterocycloaklyl substituted pyrimidines and their uses” (2018).
# Target: T1, Mitogen-activated protein kinase kinase kinase 12 (Homo sapiens, UniProt Q12852)
# T1 sequence (Q12852 whole entry): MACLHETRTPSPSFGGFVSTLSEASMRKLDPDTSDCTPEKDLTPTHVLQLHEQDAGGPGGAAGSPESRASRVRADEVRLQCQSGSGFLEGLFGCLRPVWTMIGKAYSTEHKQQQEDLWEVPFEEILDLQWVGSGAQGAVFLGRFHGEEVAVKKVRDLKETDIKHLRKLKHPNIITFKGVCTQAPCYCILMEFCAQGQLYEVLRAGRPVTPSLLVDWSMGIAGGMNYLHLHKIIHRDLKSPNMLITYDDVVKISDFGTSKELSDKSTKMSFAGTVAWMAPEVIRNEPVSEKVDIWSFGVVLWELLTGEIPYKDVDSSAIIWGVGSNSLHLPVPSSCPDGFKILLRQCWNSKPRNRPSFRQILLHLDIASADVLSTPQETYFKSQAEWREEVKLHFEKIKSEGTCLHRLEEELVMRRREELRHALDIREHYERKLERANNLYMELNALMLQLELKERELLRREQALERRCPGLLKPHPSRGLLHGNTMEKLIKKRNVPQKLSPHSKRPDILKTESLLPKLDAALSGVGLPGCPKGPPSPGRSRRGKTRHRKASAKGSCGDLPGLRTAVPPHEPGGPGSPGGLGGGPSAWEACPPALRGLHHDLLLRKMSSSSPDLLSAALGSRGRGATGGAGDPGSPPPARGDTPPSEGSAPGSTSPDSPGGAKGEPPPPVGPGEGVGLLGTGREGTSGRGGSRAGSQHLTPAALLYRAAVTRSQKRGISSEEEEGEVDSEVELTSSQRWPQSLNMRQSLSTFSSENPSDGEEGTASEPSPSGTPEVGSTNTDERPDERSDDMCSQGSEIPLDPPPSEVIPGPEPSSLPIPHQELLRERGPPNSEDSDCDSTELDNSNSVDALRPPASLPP
# Assay: TR-FRET assay: DLK kinase reactions (20 μL) containing 5 nM N-terminally GST-tagged DLK (catalytic domain amino acid 1-520) (Carna Bioscience), 40 nM N-terminally HIS-tagged MKK4 K131M substrate, and 30 μM ATP in kinase reaction buffer (50 mM HEPES, pH 7.5, 0.01% Triton X-100, 0.01% Bovine γ-Globulins, 2 mM DTT, 10 mM MgCl2 and 1 mM EGTA), and testing compound 1:3 serial diluted starting at 20 uM were incubated at ambient temperature for 60 minutes in 384 well OptiPlate (Perkin Elmer). To quench kinase reactions and detect phosphorylated MKK4, 15 μL of TR-FRET antibody mixture containing 2 nM anti-phosphorylated MKK4 labeled with Europium cryptate (Cisbio) and 23 nM anti-HIS labeled with D2 (Cisbio) in detection buffer (25 mM Tris pH 7.5, 100 mM NaCl, 100 mM EDTA, 0.01% Tween-20, and 200 mM KF) was added to the reaction mixture. The detection mixture was incubated for 3 hours at ambient temperature and the TR-FRET was detected with an EnVision multilabel plate reader (Perkin-Elmer) using the LANCE/DELFIA Dual Enh label from Perkin-Elmer (excitation filter: UV2 (TRF) 320 and emission filters: APC 665 and Europium 615).
row,SMILES,Ki
1,Cc1ccnc(Nc2cc(C3CCCN(C(=O)Cc4ccccc4)C3)nc(C)n2)c1 (configuration not stated),639 nM
2,COC[C@H]1CCCN1c1nc(Nc2cc(C(F)(F)F)ccn2)cc(C2CCN(C(C)=O)CC2)n1,54.8 nM
